Test results: BigSolDB 2.1

CC(C)(C)C(=O)C(Oc1ccc(Cl)cc1)n1ccnc1 (centres undefined)
solubility (mole fraction)
Details	278.15 K	283.15 K	288.15 K	293.15 K	298.15 K	303.15 K	308.15 K	313.15 K	318.15 K
in ethanol	0.0801	0.0952	0.112	0.133	0.159	0.184	0.215	0.249	0.287
in n-butanol	0.0804	0.0957	0.112	0.132	0.156	0.18	0.209	0.243	0.282
in n-heptanol	0.0686	0.0797	0.0937	0.111	0.131	0.152	0.18	0.21	0.245
in n-hexanol	0.073	0.0858	0.0999	0.119	0.141	0.164	0.192	0.223	0.263
in n-pentanol	0.0781	0.0912	0.107	0.127	0.15	0.174	0.204	0.238	0.273
in n-propanol	0.0842	0.0998	0.117	0.139	0.165	0.19	0.22	0.254	0.29
